Measurements as given in patent US6358885B1, “Substituted phenylheterocyclic herbicides” (Mississippi State University, priority 1992, dated 2002).

How the values were obtained:
corn [1] = assay: Test B preemergence/postemergence greenhouse plant response rating 0 to 10; assay type: in vivo, Zea mays; details: Rate 50 g/ha, 0 to 10 scale
How it was run: (§1)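 Both application timings were run together: seeds got compound preemergence, and established seedlings (two to eighteen cm) got it postemergence. Non-phytotoxic solvent carried the chemical. Ratings are visual, versus controls, at twelve to sixteen days.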

sorghum = assay: as above; assay type: in vivo, Sorghum bicolor; details: 0 to 10 scale
How it was run: as §1

ryegrass = assay: Test C preemergence/postemergence greenhouse plant response rating 0 to 100; assay type: in vivo, Lolium multiflorum; details: POSTEMERGENCE
Source text: (§2) The compounds evaluated in this test were formulated in a non-phytoxic solvent and applied to the soil surface before plant seedlings emerged (preemergence application), to water that covered the soil surface (flood application), and to plants that were in the one-to-four leaf stage (postemergence application). A sandy loam soil was used for the preemergence and postemergence tests, while a silt loam soil was used in the flood test. Water depth was approximately 2.5 cm for the flood test and was maintained at this level for the duration of the test. Plant species in the preemergence and postemergence tests consisted of barley (Hordeum vulgare), bedstraw (Galium aparine), blackgrass (Alopecurus myosuroides), chickweed (Stellaria media), corn (Zea mays), cotton (Gossypium hirsutum), crabgrass (Digitaria sanguinalis), downy brome (Bromus tectorum), giant foxtail (Setaria faberii), lambsquarters (Chenopodium album), morningglory (Ipomoea hederacea), pigweed ([…]), rape (Brassica napus), ryegrass (Lolium multiflorum), sorghum (Sorghum bicolor), soybean (Glycine max), speedwell (Veronica persica), sugar beet (Beta vulgaris), velvetleaf (Abutilon theophrasti), wheat (Triticum aestivum), wild buckwheat (Polygonum convolvulus), and wild oat (Avena fatua). All plant species were planted one day before application of the compound for the preemergence portion-of this test. Plantings of these species were adjusted to produce plants of appropriate size for the post-emergence portion of the test. […] All plant species were grown using normal greenhouse practices. Visual evaluations of injury expressed on treated plants, when compared to untreated controls, were recorded approximately fourteen to twenty one days after application of the test compound. […] A dash (-) response means no test result.

velvetleaf = assay: Test B preemergence/postemergence greenhouse plant response rating 0 to 10; assay type: in vivo, Abutilon theophrasti; details: 0 to 10 scale
How it was run: as §1

morningglory = assay: Test C preemergence/postemergence greenhouse plant response rating 0 to 100; assay type: in vivo, Ipomoea hederacea; details: POSTEMERGENCE
Source text: as §2

sugar beet = assay: Test B preemergence/postemergence greenhouse plant response rating 0 to 10; assay type: in vivo, Beta vulgaris; details: 0 to 10 scale
How it was run: as §1

wheat = assay: Test C preemergence/postemergence greenhouse plant response rating 0 to 100; assay type: in vivo, Triticum aestivum; details: POSTEMERGENCE
Source text: as §2

purple nutsedge = assay: Test B preemergence/postemergence greenhouse plant response rating 0 to 10; assay type: in vivo, Cyperus rotundus; details: 0 to 10 scale
How it was run: as §1

bedstraw = assay: Test C preemergence/postemergence greenhouse plant response rating 0 to 100; assay type: in vivo, Galium aparine; details: POSTEMERGENCE
Source text: as §2

rape = assay: as above; assay type: in vivo, Brassica napus; details: POSTEMERGENCE
Source text: as §2

barnyardgrass = assay: Test B preemergence/postemergence greenhouse plant response rating 0 to 10; assay type: in vivo, Echinochloa crus-galli; details: 0 to 10 scale
How it was run: as §1

crabgrass = assay: Test C preemergence/postemergence greenhouse plant response rating 0 to 100; assay type: in vivo, Digitaria sanguinalis; details: POSTEMERGENCE
Source text: as §2

blackgrass = assay: Test B preemergence/postemergence greenhouse plant response rating 0 to 10; assay type: in vivo, Alopecurus myosuroides; details: 0 to 10 scale
How it was run: as §1

barley = assay: as above; assay type: in vivo, Hordeum vulgare; details: 0 to 10 scale
How it was run: as §1

corn [2] = assay: Test C preemergence/postemergence greenhouse plant response rating 0 to 100; assay type: in vivo, Zea mays; details: POSTEMERGENCE
Source text: as §2

chickweed = assay: Test B preemergence/postemergence greenhouse plant response rating 0 to 10; assay type: in vivo, Stellaria media; details: 0 to 10 scale
How it was run: as §1

wild oat = assay: Test C preemergence/postemergence greenhouse plant response rating 0 to 100; assay type: in vivo, Avena fatua; details: POSTEMERGENCE
Source text: as §2

With C#CCN1C(=O)COc2cc(F)c(-c3nn4c(c3Br)CCCC4)cc21 [Compound 56] the “Plant response rating, Corn” value (corn [1]; POSTEMERGENCE) was 3, the “Plant response rating, Corn” value (corn [1]; PREEMERGENCE) was 0 and the “Plant response rating, Sorghum” value (sorghum; POSTEMERGENCE, Rate 10 g/ha) was 3. For the same compound, the “Plant response rating, Sorghum” value (sorghum; POSTEMERGENCE, Rate 50 g/ha) was 2, the “Plant response rating, Sorghum” value (sorghum; PREEMERGENCE, Rate 50 g/ha) was 0 and the “Plant response rating Ryegrass” value (ryegrass; 62 g/ha, 0 to 100 scale) was 50. The “Plant response rating (0 to 100), Ryegrass” value (ryegrass; Rate 1 g/ha) was 20, the “Plant response rating (0 to 100), Ryegrass” value (ryegrass; Rate 4 g/ha) was 40 and the “Plant response rating (0 to 100), Ryegrass” value (ryegrass; Rate 16 g/ha) was 40. The “Plant response rating, Velvetleaf” value (velvetleaf; POSTEMERGENCE, Rate 10 g/ha) was 9, the “Plant response rating, Velvetleaf” value (velvetleaf; POSTEMERGENCE, Rate 50 g/ha) was 9 and the “Plant response rating, Velvetleaf” value (velvetleaf; PREEMERGENCE, Rate 50 g/ha) was 10. The “Plant response rating, Morningglory” value (morningglory; 62 g/ha, 0 to 100 scale) was 100, the “Plant response rating (0 to 100), Morningglory” value (morningglory; Rate 1 g/ha) was 50 and the “Plant response rating (0 to 100), Morningglory” value (morningglory; Rate 4 g/ha) was 100. The “Plant response rating (0 to 100), Morningglory” value (morningglory; Rate 16 g/ha) was 100, the “Plant response rating, Sugar beet” value (sugar beet; POSTEMERGENCE, Rate 10 g/ha) was 10 and the “Plant response rating, Sugar beet” value (sugar beet; POSTEMERGENCE, Rate 50 g/ha) was 10. For the same compound, the “Plant response rating, Sugar beet” value (sugar beet; PREEMERGENCE, Rate 50 g/ha) was 9, the “Plant response rating, Wheat” value (wheat; 62 g/ha, 0 to 100 scale) was 60 and the “Plant response rating (0 to 100), Wheat” value (wheat; Rate 1 g/ha) was 30. For the same compound, the “Plant response rating (0 to 100), Wheat” value (wheat; Rate 4 g/ha) was 50, the “Plant response rating (0 to 100), Wheat” value (wheat; Rate 16 g/ha) was 60 and the “Plant response rating, Nutsedge” value (purple nutsedge; POSTEMERGENCE, Rate 10 g/ha) was 4. The “Plant response rating, Nutsedge” value (purple nutsedge; POSTEMERGENCE, Rate 50 g/ha) was 7, the “Plant response rating, Nutsedge” value (purple nutsedge; PREEMERGENCE, Rate 50 g/ha) was 4 and the “Plant response rating, Bedstraw” value (bedstraw; 62 g/ha, 0 to 100 scale) was 100. The “Plant response rating (0 to 100), Bedstraw” value (bedstraw; Rate 1 g/ha) was 70, the “Plant response rating (0 to 100), Bedstraw” value (bedstraw; Rate 4 g/ha) was 80 and the “Plant response rating (0 to 100), Bedstraw” value (bedstraw; Rate 16 g/ha) was 95. The “Plant response rating, Rape” value (rape; 62 g/ha, 0 to 100 scale) was 100, the “Plant response rating (0 to 100), Rape” value (rape; Rate 1 g/ha) was 100 and the “Plant response rating (0 to 100), Rape” value (rape; Rate 4 g/ha) was 100. The “Plant response rating (0 to 100), Rape” value (rape; Rate 16 g/ha) was 100, the “Plant response rating, Barnyardgrass” value (barnyardgrass; POSTEMERGENCE, Rate 10 g/ha) was 3 and the “Plant response rating, Barnyardgrass” value (barnyardgrass; POSTEMERGENCE, Rate 50 g/ha) was 4. The “Plant response rating, Barnyardgrass” value (barnyardgrass; PREEMERGENCE, Rate 10 g/ha) was 0, the “Plant response rating, Barnyardgrass” value (barnyardgrass; PREEMERGENCE, Rate 50 g/ha) was 0 and the “Plant response rating, Crabgrass” value (crabgrass; 62 g/ha, 0 to 100 scale) was 20. The “Plant response rating (0 to 100), Crabgrass” value (crabgrass; Rate 1 g/ha) was 0, the “Plant response rating (0 to 100), Crabgrass” value (crabgrass; Rate 4 g/ha) was 0 and the “Plant response rating (0 to 100), Crabgrass” value (crabgrass; Rate 16 g/ha) was 10. For the same compound, the “Plant response rating, Blackgrass” value (blackgrass; POSTEMERGENCE, Rate 10 g/ha) was 6, the “Plant response rating, Blackgrass” value (blackgrass; POSTEMERGENCE, Rate 50 g/ha) was 7 and the “Plant response rating, Blackgrass” value (blackgrass; PREEMERGENCE, Rate 10 g/ha) was 3. For the same compound, the “Plant response rating, Blackgrass” value (blackgrass; PREEMERGENCE, Rate 50 g/ha) was 6, the “Plant response rating, Barley” value (barley; POSTEMERGENCE, Rate 10 g/ha) was 6 and the “Plant response rating, Barley” value (barley; POSTEMERGENCE, Rate 50 g/ha) was 7. The “Plant response rating, Barley” value (barley; PREEMERGENCE, Rate 10 g/ha) was 0, the “Plant response rating, Barley” value (barley; PREEMERGENCE, Rate 50 g/ha) was 2 and the “Plant response rating, Corn” value (corn [2]; 62 g/ha, 0 to 100 scale) was 50. For the same compound, the “Plant response rating (0 to 100), Corn” value (corn [2]; Rate 1 g/ha) was 20, the “Plant response rating (0 to 100), Corn” value (corn [2]; Rate 4 g/ha) was 30 and the “Plant response rating (0 to 100), Corn” value (corn [2]; Rate 16 g/ha) was 40. The “Plant response rating, Chickweed” value (chickweed; POSTEMERGENCE, Rate 10 g/ha) was 9, the “Plant response rating, Chickweed” value (chickweed; POSTEMERGENCE, Rate 50 g/ha) was 10 and the “Plant response rating, Chickweed” value (chickweed; PREEMERGENCE, Rate 10 g/ha) was 9. The “Plant response rating, Chickweed” value (chickweed; PREEMERGENCE, Rate 50 g/ha) was 10, the “Plant response rating, Wild oat” value (wild oat; 62 g/ha, 0 to 100 scale) was 60 and the “Plant response rating (0 to 100), Wild oat” value (wild oat; Rate 1 g/ha) was 30. The “Plant response rating (0 to 100), Wild oat” value (wild oat; Rate 4 g/ha) was 40 and the “Plant response rating (0 to 100), Wild oat” value (wild oat; Rate 16 g/ha) was 50.
